Measured values published in patent publication US20230391741A1, “AGAROFURAN COMPOUND, PREPARATION METHOD THEREFOR, AND APPLICATION THEREOF” (BEIJING CHY PHARMACEUTICAL TECHNOLOGY CO, LTD., priority 2021, published 2023).
Where “and” joins values, the source holds several entries; their conditions need not be identical. Equal entries are not always repeated.

Tested on: male ICR mice
Assay: Elevated plus maze (EPM) test, intraperitoneal injection
Type: in vivo, mouse
Details: for Closed arm number of entries / Closed arm residence time / Open arm number of entries / Open arm residence time / Open arm/closed arm frequency ratio / Open arm/closed arm time ratio: mice, intraperitoneal, 5 min before entering the maze
Text: The active ingredient used in the following pharmacological experiment, the compound shown in Formula (I) of the present application, is the final product in Example 1 of the present application, namely (1R,6S,9R)6,10,10-trimethyl-2-(4,4,4-trifluorobutyl)-11-oxatricyclo [7.2.1.0^1,6]dodec-2-ene (hereinafter referred to as Compound 2). Compound 2 and an excipient PVP (povidone K30) were mixed in an ethanol solution in a mass ratio of 1:15, spin-dried, and prepared into a preparation form of Compound 2 (the following Compound 2 refers to the preparation form of Compound 2). The preparation form of which the active ingredient was 4-butyl-α-agarofuran (BAF for short) was used as a positive drug, a preparation method for this preparation was the same as that of the preparation of Compound 2, and the following BAF refers to this preparation of BAF. PVP was a blank control. In addition, the administration dose was calculated according to a crude drug.
This model is one of the most commonly used animal models in the research of antianxiety drugs. The elevated plus maze is composed of an open arm (30×5×0.5 cm) and an closed arm (30×8×15 cm) that are crossed in a positive cross shape, and the instrument is suspended 50 cm above the ground. Due to the narrowness, suspension, and brightness of the open arm, there may be internal “fear” or conflict in the open arm, and on the contrary, it more complies with the nature of rodents in the closed arm. 5 min after administration, a mouse is placed in the center of the maze, and its head faces to the open arm. Open-arm and closed-arm entries and residence times in both arms during the experimental period (usually 5 min) are recorded respectively. The percentages of the open arm entries and the open arm residence times respectively accounting for the total entries (sum of the open arm and closed arm entries) and the total time (sum of the open arm and closed arm residence times) are calculated, as an indicator for evaluating the anxiety. Generally speaking, a drug is considered to have antianxiety effects in the case that the open arm cumulative residence time is prolonged without reducing the open arm and closed arm entries.
The experiment used male Institute of Cancer Research (ICR) mice (purchased from Beijing Weitong Lihua Experimental Animal Technology Co., Ltd.), the weight was 18-20 g, the mice were randomly divided into 7 groups according to the weight, and there were 13 mice in each group. Grip adaptation training was conducted on the mice before the experiment. Before the experiment, the mice were fasted for 12 hours. It was administered by an intraperitoneal injection mode. 4-butyl-α-agarofuran (BAF for short) was used as a positive drug, and PVP was a blank control. The specific grouping and disposal modes are as follows:
During detection, after intraperitoneal injection of BAF/Compound 2, each mouse was immediately placed in an open animal box and allowed to move freely for 5 min, then the mouse was placed on a central platform of the elevated plus maze, its head faced to a fixed open arm. The detection was started, timed for 5 min, and recorded with a supermaze software by using a camera head. After all the experiments were completed, the residence times (s) of the mice in the open arm and the closed arm, the open arm and closed arm entries, and the time ratios and frequency ratios of the open arm and closed arm entries were recorded with the supermaze software. 1 was added to the number of entry arms with a latency of 0.

## CCCCC1=CCC[C@@]2(C)CC[C@@H]3C[C@]12OC3(C)C [BAF, 4-butyl-α-agarofuran, reference compound]
2 mg/kg, 2 mg/kg
  Closed arm number of entries: 10.31 ± 1.13 and 11.22 ± 1.5 and 9.90 ± 1.19
  Closed arm residence time: 143.9 ± 9.32 s and 148.89 ± 8.27 s and 146.67 ± 7.95 s
  Open arm number of entries: 8.62 ± 0.92 and 8.78 ± 1.1 and 8.80 ± 1.14
  Open arm residence time: 115.97 ± 9.71 s and 110.32 ± 8.91 s and 110.04 ± 6.30 s
  Open arm/closed arm frequency ratio: 0.85 ± 0.06 and 0.80 ± 0.07 and 0.89 ± 0.07
  Open arm/closed arm time ratio: 0.93 ± 0.16 and 0.79 ± 0.12 and 0.80 ± 0.11
4 mg/kg, 4 mg/kg
  Closed arm number of entries: 9.23 ± 0.57 and 8.89 ± 0.79 and 9.29 ± 0.68
  Closed arm residence time: 153.35 ± 7.35 s and 162.64 ± 5.96 s and 144.17 ± 12.09 s
  Open arm number of entries: 7.38 ± 0.58 and 6.56 ± 0.4 and 8.29 ± 0.87
  Open arm residence time: 117.29 ± 7.44 s and 106.13 ± 3.91 s and 128.84 ± 11.89 s
  Open arm/closed arm frequency ratio: 0.82 ± 0.07 and 0.77 ± 0.06 and 0.91 ± 0.09
  Open arm/closed arm time ratio: 0.82 ± 0.11 and 0.66 ± 0.04 and 0.98 ± 0.18
8 mg/kg, 8 mg/kg
  Closed arm number of entries: 9.85 ± 0.72 and 9.78 ± 1.00 and 9.60 ± 0.87
  Closed arm residence time: 162.19 ± 10.92 s and 158.24 ± 14.9 s and 165.34 ± 13.19 s
  Open arm number of entries: 7.69 ± 0.91 and 8.11 ± 1.27 and 7.10 ± 0.95
  Open arm residence time: 110.07 ± 9.77 s and 113.25 ± 12.84 s and 107.74 ± 11.86 s
  Open arm/closed arm frequency ratio: 0.76 ± 0.05 and 0.76 ± 0.07 and 0.72 ± 0.06
  Open arm/closed arm time ratio: 0.76 ± 0.10 and 0.81 ± 0.13 and 0.74 ± 0.12

## CC1(C)O[C@]23C[C@H]1CC[C@]2(C)CCC=C3CCCC(F)(F)F [Compound 2, (1R,6S,9R)6,10,10-trimethyl-2-(4,4,4-trifluorobutyl)-11-oxatricyclo [7.2.1.0^1,6]dodec-2-ene]
At both low and medium doses, especially low dose
  Efficacy compared with BAF: better efficacy than BAF
At low doses
  Efficacy compared with BAF: better efficacy
Intraperitoneal doses of 2.4, 4.8 and 9.6 mg/kg
  Antianxiety effects in elevated plus maze: significant antianxiety effects
2.4 mg/kg
  Closed arm number of entries: 10.92 ± 0.84
  Closed arm residence time: 112.68 ± 8.68 s
  Open arm number of entries: 9.23 ± 0.47
  Open arm residence time: 144.06 ± 8.10 s
  Open arm/closed arm frequency ratio: 0.89 ± 0.06
  Open arm/closed arm time ratio: 1.48 ± 0.24
4.8 mg/kg
  Closed arm number of entries: 10.00 ± 0.57
  Closed arm residence time: 149.91 ± 8.22 s
  Open arm number of entries: 9.08 ± 0.69
  Open arm residence time: 118.65 ± 6.32 s
  Open arm/closed arm frequency ratio: 0.93 ± 0.07
  Open arm/closed arm time ratio: 0.86 ± 0.11
9.6 mg/kg
  Closed arm number of entries: 9.85 ± 1.08
  Closed arm residence time: 139.13 ± 11.37 s
  Open arm number of entries: 9.31 ± 1.12
  Open arm residence time: 115.0 ± 8.07 s
  Open arm/closed arm frequency ratio: 0.99 ± 0.10
  Open arm/closed arm time ratio: 0.93 ± 0.12
